Results taken from PubChem BioAssay (NCI).
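How tested: cells in 96-well plates exposed to compound for 48 hours at five concentrations. TGI is the concentration that stops growth completely.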

How the values were obtained:
Test in all cases: NCI tumour cell line growth inhibition, 48 h
T-47D breast = system: T-47D breast
SK-OV-3 ovarian = system: SK-OV-3 ovarian
NCI-H460 lung = system: NCI-H460 lung
EKVX NSCLC = system: EKVX NSCLC
RXF 393 renal = system: RXF 393 renal
HOP-92 NSCLC = system: HOP-92 NSCLC
SF-539 CNS = system: SF-539 CNS
NCI-H226 lung = system: NCI-H226 lung
NCI-H522 lung = system: NCI-H522 lung
PC-3 prostate = system: PC-3 prostate

Row | Structure (SMILES) | TGI (T-47D breast) [µM] | TGI (SK-OV-3 ovarian) [µM] | TGI (NCI-H460 lung) [µM] | TGI (EKVX NSCLC) [µM] | TGI (RXF 393 renal) [µM] | TGI (HOP-92 NSCLC) [µM] | TGI (SF-539 CNS) [µM] | TGI (NCI-H226 lung) [µM] | TGI (NCI-H522 lung) [µM] | TGI (PC-3 prostate) [µM]
1 | Cc1ccc(NC(=O)C(=O)CC(=O)c2sc(Nc3c(C)cccc3C)nc2C)cc1C | > 100 | > 100 | > 100 | > 100 | > 100 | > 100 | > 100 | > 100 | > 100 | > 100
2 | CN(C)/N=C1\CC(c2ccccc2)C(C#N)(C#N)C1(C#N)C#N (stereo not given) | 50.3 | > 100 |  | > 100 | 54.5 | 29.7 | > 100 | 84.7 | 35.3 | 35.6
3 | O=C1Nc2ccccc2/C1=c1\[nH]c(=O)/c(=C\c2ccc(OCc3ccccc3)cn2)[nH]c1=O | > 100 | > 100 | > 100 | > 100 | 34.9 | 76.8 | 55.5 | > 100 | > 100 | > 100
4 | C[N+]1(CCN[N+]2(C)CCCCC2)CCc2ccccc2C1 (stereo not given) | > 100 | > 100 | > 100 | > 100 | > 100 | > 100 | > 100 | > 100 | > 100 | > 100
5 | O=C(CCc1ccccc1)ON1C(=S)C(c2ccccc2)(c2ccccc2)N=C1Sc1ccccc1 | > 100 | > 100 | > 100 | > 100 | > 100 | > 100 | > 100 | > 100 |  | > 100
6 | CCN(CC)c1ccc(/C=C/C=C2C(=O)NC(=S)NC2=O)cc1 | > 100 | > 100 | > 100 | > 100 | 45.2 | > 100 | 36.6 | 99 |  | > 100
7 | CN(C)c1cccc(NC2=NCCO2)c1 | > 100 |  | > 100 | > 100 | > 100 | > 100 | > 100 | > 100 | > 100 | > 100
8 | Cn1c(N/N=C/c2ccccc2)nc(-c2ccc([N+](=O)[O-])cc2)c(C#N)c1=O | > 100 | > 100 | > 100 | > 100 | > 100 | 80.6 | > 100 |  | > 100 | > 100
9 | NNC(=O)c1cc(=O)[nH][nH]1 | > 100 | > 100 | > 100 | > 100 | > 100 | > 100 | > 100 | > 100 | > 100 | > 100
10 | COc1cc(C2c3cc4c(cc3OC(NCCO)C2C)OCO4)cc(OC)c1OC (stereo not given) | > 100 | > 100 | > 100 | > 100 | > 100 | 93 | 0.635 | 9.84 | 1.62 | > 100
11 | C(=C\N1CCCCC1)/c1nnnn1-c1ccccc1 | 76.3 | 63.3 | > 100 | 63.1 | 56.6 | > 100 | 76.6 | > 100 | > 100 | > 100
12 | CC(=O)N(O)c1ccc(-c2nc3ccccc3s2)cc1 | > 100 |  | > 100 |  | > 100 | > 100 |  | 73.2 | 97.2 | > 100
13 | O=[N+]([O-])c1ccc(O)c(/C=N/NC(=S)N2CCCCC2)c1 | > 80.1 | > 56.6 | 38.3 | 15.3 | > 100 | 33 | > 100 | 5.94 | > 45.3 | > 92.7
14 | CC1CC(=O)N(N(C)C)C(C#N)(C#N)C1(C#N)C#N (stereo not given) | 42.1 | > 64.9 |  | 57.5 | 26.6 | 26 | 59.1 | 67 | 7.73 | 34.8
15 | COC(OC)[C@@H]1OC[C@@H](O)[C@@H]1n1cnc2c(N)ncnc21 | > 100 | > 100 | > 100 | > 100 | > 100 | > 100 | > 100 | > 100 | > 100 | > 100
16 | O=C(CCc1ccccc1)On1c(-c2ccccc2)nc2ccccc2c1=S | > 100 | > 100 | > 100 | 52.1 | 57.3 | > 100 | 20.7 | 29.9 |  | 56.3
17 | CC(=O)N1CCn2c1nc1cc(Cl)ccc12 | 51.4 | 68 | > 100 | > 100 | 53.9 | 81.4 | > 100 | > 100 | > 100 | > 100
